Data as given in US20240252500A1, “Treatment of chronic pruritic dermatoses” (CymaBay Therapeutics, Inc., priority 2023, published 2024).
Where two headings read alike, the source gives them in different places.

Legend:
[1] = biological target: T1, peroxisome proliferator-activated receptor-α (Homo sapiens, UniProt Q07869); experiment: PPARα agonism / selectivity; format: biochemical
T1 sequence (Q07869 1-468): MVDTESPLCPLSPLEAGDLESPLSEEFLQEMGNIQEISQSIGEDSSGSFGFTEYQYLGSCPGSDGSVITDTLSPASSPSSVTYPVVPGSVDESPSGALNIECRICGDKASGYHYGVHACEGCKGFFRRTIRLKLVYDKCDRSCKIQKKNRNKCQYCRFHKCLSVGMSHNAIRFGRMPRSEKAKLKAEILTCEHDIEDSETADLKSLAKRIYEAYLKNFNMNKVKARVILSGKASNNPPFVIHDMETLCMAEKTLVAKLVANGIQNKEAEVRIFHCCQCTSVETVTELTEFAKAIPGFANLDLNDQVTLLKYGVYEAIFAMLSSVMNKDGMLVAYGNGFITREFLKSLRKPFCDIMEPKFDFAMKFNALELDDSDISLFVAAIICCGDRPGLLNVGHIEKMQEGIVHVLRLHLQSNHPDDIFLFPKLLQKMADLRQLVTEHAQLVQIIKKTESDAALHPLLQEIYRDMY

CD4 T cells = experiment: IL-31 production by CD4 T cells under Th2-promoting conditions; format: cell-based, human; conditions: both donors, both promoters; p<0.0001, Mann-Whitney test
Procedure: CD4 T cells were enriched from peripheral blood mononuclear cells collected from two normal healthy donors, using the EasySep™ Human CD4+ T Cell Isolation Kit ([…] Technologies). 100,000 CD4 T cells were seeded in a U-bottom 96-well-plate well, and cultured in Th2-promoting conditions promoted by IL-4 or IL-33. […] On day 5 of culture, the anti-CD3/CD28 beads were diluted by adding 150 μL TCM. From days 5 to 13, the cells were cultured in the presence of the same reagents as for days 1 to 4 plus 50 ng/mL IL-2; and the cell culture medium was renewed every 2-3 days by a change of 50% volume of the medium. On day 13 or day 14, the expanded T cells in an individual well were split to four to six wells of 96-well-plate wells; and 5 ng/mL phorbol myristate acetate and 500 ng/mL ionomycin were added for 3 days to re-activate the T cells. The IL-31 concentration in the culture medium of each well was determined using the V-PLEX Human IL-31 Kit (Meso Scale Diagnostics, LLC; Rockville, MD, USA).

human IL-31 [2] = experiment: Serum human IL-31 in PXB mice (humanized liver); format: in vivo, PXB mouse; conditions: 2 h after last dose, day 0 0.13 pg/mL
Excerpt: The PXB mouse (PhoenixBio Co., Ltd., Higashi-Hiroshima, Japan) is a chimeric mouse with a humanized liver, produced by transplanting human hepatocytes into the albumin enhancer/promoter-urokinase-type plasminogen activator complementary DNA transgenic/SCID mouse. The mouse has its liver repopulated by human hepatocytes at a ratio of more than 70%, typically 85-90%, as assessed by measuring the ratio of human albumin to mouse albumin in the blood. The transplanted human hepatocytes express a variety of human messenger RNA (mRNA) and proteins, in a similar manner to those of the normal human liver. […] The study was conducted at PhoenixBio. Male PXB mice aged about 25 weeks, kept in single animal cages and fed CRF1 mouse chow supplemented with AS primate chow for vitamin C supplementation (both from Oriental Yeast Co., Ltd., Tokyo, Japan), were randomized into groups (10/group) based on mean values for body weight and blood human albumin concentration. […] Two hours after the last dose, each mouse was anesthetized with isoflurane, at least 400 μL blood was collected by cardiac puncture, and the mouse sacrificed by exsanguination. The blood samples were left to coagulate at room temperature for at least 5 minutes, then centrifuged at 13200×g for 3 minutes at 4° C. to obtain serum, which was analyzed for human IL-31.

IL-31 [3] = experiment: Serum IL-31 in PBC subjects, phase 3 study (ENHANCE, NCT03602560); format: in vivo, human; conditions: before treatment
Excerpt: The trial subjects in this phase 3 study were adult, male or female, with a diagnosis of PBC. Exclusion criteria included AST or ALT≥3×ULN, total bilirubin (TBIL)≥2×ULN, autoimmune hepatitis or a history of chronic viral hepatitis, PSC, the current use of fibrates or simvastatin, the use of colchicine, methotrexate, azathioprine, or systemic steroids in the previous two months, the use of an experimental treatment for PBC, and the use of an experimental or unapproved immunosuppressant. […] Serum IL-31 and its correlation with patient-reported pruritus numerical rating scale (NRS, 0-10) were assessed.

[4] = test system: atopic dermatitis-associated pruritus; experiment: Oral treatment of pruritic atopic dermatitis; format: in vivo, human
Procedure: (§1) Subjects are permitted their usual other medications. […] At each visit, the subjects are assessed for their disease symptoms and biomarkers, and assessed for pruritus. The subjects also maintain health diaries, which are reviewed at each visit.
(§2) Adult subjects with pruritic atopic dermatitis are treated orally with doses of 5, 10, 25, 50, and 100 mg/day of mavodelpar. Subjects are permitted their usual other medications. The subjects are assessed before the study, and at intervals during the study, such as every 4 weeks during the study and 4 weeks after the last dose of the mavodelpar therapy, for safety and pharmacodynamic evaluations. At each visit, the subjects are assessed for their disease symptoms and biomarkers, and assessed for atopic dermatitis-associated pruritus. The subjects also maintain health diaries, which are reviewed at each visit.

[5] = test system: atopic dermatitis-associated pruritus; experiment: Topical ointment treatment of pruritic atopic dermatitis; format: in vivo, human
Procedure: as §1
as §2, with “topically” for “orally”, “an ointment containing 1, 2,” for “doses of”, “or 10%” for “10, 25, 50, and 100 mg/day”, “for” for “for atopic dermatitis-associated”

[6] = Seladelpar oral studies in primary biliary cholangitis; format: in vivo, human
[7] = Oral bioavailability of seladelpar; conditions: in vivo
[8] = PBC patients, 12 months, cited from earlier work
human IL-31 [9] = conditions: humanized liver murine model; cited from earlier work
IL-31 [10] = conditions: NASH patients; cited from earlier work
[11] = biological target: T1, peroxisome proliferator-activated receptor-α; conditions: Alzheimer's Drug Discovery Foundation Cognitive Vitality Report, November 2021; read-out: EC50 for PPARα; cited from earlier work
[12] = biological target: T2, peroxisome proliferator-activated receptor-γ (Homo sapiens, UniProt P37231); conditions: Alzheimer's Drug Discovery Foundation Cognitive Vitality Report, November 2021; read-out: EC50 for PPARγ; cited from earlier work
T2 sequence (P37231 1-505): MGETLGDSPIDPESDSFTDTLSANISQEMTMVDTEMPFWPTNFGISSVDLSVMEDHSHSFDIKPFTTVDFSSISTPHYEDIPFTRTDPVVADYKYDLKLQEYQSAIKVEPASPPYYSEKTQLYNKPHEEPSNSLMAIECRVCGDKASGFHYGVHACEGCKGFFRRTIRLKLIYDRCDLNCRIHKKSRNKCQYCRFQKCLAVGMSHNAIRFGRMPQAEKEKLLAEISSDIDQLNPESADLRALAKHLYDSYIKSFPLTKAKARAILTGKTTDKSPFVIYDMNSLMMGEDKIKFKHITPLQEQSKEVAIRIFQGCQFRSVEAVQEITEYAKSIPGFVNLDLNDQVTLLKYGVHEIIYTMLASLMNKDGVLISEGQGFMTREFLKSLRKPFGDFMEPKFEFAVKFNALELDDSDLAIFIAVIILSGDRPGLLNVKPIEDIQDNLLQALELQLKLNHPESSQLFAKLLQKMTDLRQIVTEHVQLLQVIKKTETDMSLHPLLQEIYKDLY

[13] = animal models and humans; cited from earlier work
[14] = several animal models of type 2 diabetes; cited from earlier work
[15] = early clinical studies; cited from earlier work

CCO[C@H](COc1ccc(C(F)(F)F)cc1)CSc1ccc(OCC(=O)O)c(C)c1 [seladelpar, [4-({(2R)-2-ethoxy-3-[4-(trifluoromethyl)phenoxy]propyl}sulfanyl)-2-methylphenoxy]acetic acid]
specificity for PPARδ compared with PPARα [1]: > 600 fold | IL-31 production vs DMSO control (CD4 T cells): reduced IL-31 production | serum human IL-31 concentration (human IL-31 [2]; gavage 10 mL/kg of 10 mg/mL once/day for 19 days): 0.19 pg/mL | mean serum IL-31, baseline (IL-31 [3]; 5 mg/day oral as L-lysine dihydrate salt): 3.8 pg/mL | mean serum IL-31, baseline (IL-31 [3]; 10 mg/day oral as L-lysine dihydrate salt): 4.2 pg/mL | atopic dermatitis-associated pruritus ([4]; oral 5, 10, 25 and 50 mg/day seladelpar): improvement in their atopic dermatitis-associated pruritus | atopic dermatitis-associated pruritus ([5]; ointment containing 1, 2, 5 or 10% seladelpar): improvement in their atopic dermatitis-associated pruritus | efficacy in PBC ([6]; oral 5, 10, 50 and 200 mg/day): effective in the treatment of PBC | effect on cholestatic pruritus (exacerbation) ([6]; oral 5, 10, 50 and 200 mg/day in PBC): not to exacerbate cholestatic pruritus | efficacy in cholestatic pruritus associated with PBC ([6]; oral 5 and 10 mg/day): effective in the treatment of cholestatic pruritus | oral bioavailability [7]: high

CC[C@H]1[C@@H](O)[C@@H]2[C@H](CC[C@]3(C)[C@@H]([C@H](C)CCC(=O)O)CC[C@@H]23)[C@@]2(C)CC[C@@H](O)C[C@@H]12 [obeticholic acid]
serum human IL-31 concentration (human IL-31 [2]; gavage 10 mL/kg of 1 mg/mL once/day for 19 days): 3.7 pg/mL | patients reporting severe pruritus ([8]; OCALIVA 10 mg arm): 23% | patients reporting severe pruritus ([8]; OCALIVA titration arm): 19% | IL-31 mRNA expression in human hepatocytes (human IL-31 [9]): increased

O=C(O)c1ccnc(N2CC(O)(c3ccc(OCc4c(-c5c(Cl)cccc5Cl)noc4C4CC4)cc3Cl)C2)c1 [cilofexor]
effect on IL-31 (IL-31 [10]): increased IL-31

Cc1cc(OC/C=C(/c2ccc(F)cc2)c2ccc(C#CCN3CCOCC3)cc2)ccc1OCC(=O)O [mavodelpar, (4-{[(2E)-3-(4-fluorophenyl)-3-{4-[3-(morpholin-4-yl)prop-1-yn-1-yl]phenyl}prop-2-en-1-yl]oxy}-2-methylphenoxy)acetic acid]
atopic dermatitis-associated pruritus ([4]; oral 5, 10, 25, 50 and 100 mg/day mavodelpar): improvement in their atopic dermatitis-associated pruritus | atopic dermatitis-associated pruritus ([5]; ointment containing 1, 2, 5 or 10% mavodelpar): improvement in their atopic dermatitis-associated pruritus | EC50 [11]: > 10 µM | EC50 [12]: > 10 µM | high-density lipoprotein cholesterol [13]: significant increase in high-density lipoprotein cholesterol | low-density lipoprotein cholesterol and triglycerides [13]: lowering of low-density lipoprotein cholesterol and triglycerides | anti-diabetic effect [14]: anti-diabetic effect | tolerability [15]: well tolerated
